# Experimental data: patent publication US10759783B2, “Biaryl inhibitors of Bruton'S tyrosine kinase” (BIOGEN MA INC., priority 2013, dated 2020)
# Experiments:
# BTK enzyme = biological target: T1, BTK enzyme (Homo sapiens, UniProt Q06187); assay: In vitro BTK kinase assay: BTK-POLYGAT-LS assay; format: biochemical; conditions: ATP 10 μM, read-out: IC50 (10uMATP)
# T1 construct: purchased Upstate 14-552
# Outline: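 Human BTK activity was measured with final 10 μM ATP and 100 nM polyGAT substrate in pH 7.5 Tris buffer with 10 mM MgCl2, DTT, Triton X-100 and casein.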
# [1] = biological target: BTK (phospho-BTK) in human whole blood (Homo sapiens, UniProt Q06187); assay: In vitro PD assay in human whole blood (pBTK assay)
# BTK (phospho-BTK) in human whole blood, sequence (Q06187 whole entry): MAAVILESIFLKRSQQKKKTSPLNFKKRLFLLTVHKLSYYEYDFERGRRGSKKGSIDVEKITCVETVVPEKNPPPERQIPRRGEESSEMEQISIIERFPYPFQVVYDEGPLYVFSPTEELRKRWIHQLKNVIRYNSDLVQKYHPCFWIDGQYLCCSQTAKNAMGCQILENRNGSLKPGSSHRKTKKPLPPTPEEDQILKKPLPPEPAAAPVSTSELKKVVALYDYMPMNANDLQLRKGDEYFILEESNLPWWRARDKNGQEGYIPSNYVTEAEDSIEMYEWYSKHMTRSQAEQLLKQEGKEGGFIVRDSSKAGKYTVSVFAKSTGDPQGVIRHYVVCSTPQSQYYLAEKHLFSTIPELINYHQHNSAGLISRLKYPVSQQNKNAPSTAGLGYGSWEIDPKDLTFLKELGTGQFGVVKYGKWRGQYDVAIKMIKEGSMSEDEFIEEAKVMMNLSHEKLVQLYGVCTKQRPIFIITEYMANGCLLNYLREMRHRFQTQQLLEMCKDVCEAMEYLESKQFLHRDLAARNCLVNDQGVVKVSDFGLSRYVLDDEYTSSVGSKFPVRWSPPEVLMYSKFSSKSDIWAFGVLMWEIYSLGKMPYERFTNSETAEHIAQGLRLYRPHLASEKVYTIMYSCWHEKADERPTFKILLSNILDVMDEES
# T1 sequence (Q06187 whole entry): as above
SMILES,IC50 (BTK enzyme) [nM],IC50 [1] [nM]
"CCn1cc(Nc2nccc(-c3ccc4c(c3)CCCCC4NC(=O)N3CCC(C(C)C)C3)n2)cn1 (stereo not drawn) [Example I-341, N-[2-[2-[(1-ethylpyrazol-4-yl)amino]pyrimidin-4-yl]-6,7,8,9-tetrahydro-5H-benzo[7]annulen-5-yl]-3-isopropyl-pyrrolidine-1-carboxamide]",< 10,< 500
"COCCn1cc(Nc2nccc(-c3ccc4c(c3)CCCC[C@H]4NC(=O)N3CC(OC(C)C)C3)n2)cn1 [Example I-227, (R)-3-isopropoxy-N-(2-(2-((1-(2-methoxyethyl)-1H-pyrazol-4-yl)amino)-pyrimidin-4-yl)-6,7,8,9-tetrahydro-5H-benzo[7]annulen-5-yl)azetidine-1-carboxamide]",< 10,< 500
"CCCC1CN(C(=O)NCc2ccc(-c3ccnc(Nc4cnn(C)c4)n3)cc2C)C1 [Example I-263, N-[[2-methyl-4-[2-[(1-methylpyrazol-4-yl)amino]pyrimidin-4-yl]phenyl]methyl]-3-propyl-azetidine-1-carboxamide]",< 10,< 500
"Cc1cc(-c2ccnc(Nc3cnn(C)c3)n2)ccc1CNC(=O)N1CCC(C(C)(C)C)CC1 [Example I-20, 4-(tert-butyl)-N-(2-methyl-4-(2-((1-methyl-1H-pyrazol-4-yl)amino)pyrimidin-4-yl)benzyl)piperidine-1-carboxamide]",< 10,500 to 1500
"Cc1cc(-c2ccnc(Nc3cnn(C[C@H](N)C(=O)O)c3)n2)ccc1CNC(=O)c1cnc(C(C)(C)C)s1 [Example I-130, (S)-2-amino-3-(4-((4-(4-((2-(tert-butyl)thiazole-5-carboxamido)methyl)-3-methylphenyl)pyrimidin-2-yl)amino)-1H-pyrazol-1-yl)propanoic acid]",< 10,< 500
"CC(C)(C)OC1CN(C(=O)NC2CCCCc3cc(-c4ccnc(Nc5cnn6c5CCC6)n4)ccc32)C1 (stereo not drawn) [Example I-182, 3-(tert-butoxy)-N-(2-(2-((5,6-dihydro-4H-pyrrolo [1,2-b]pyrazol-3-yl)amino)pyrimidin-4-yl)-6,7,8,9-tetrahydro-5H-benzo[7]annulen-5-yl)azetidine-1-carboxamide]",< 10,< 500
"Cc1cc(-c2ccnc(Nc3ccc(N4CCN(C)CC4)cn3)c2)ccc1CNC(=O)c1cnc(C(C)(C)C)s1 [Example I-70, 2-(tert-butyl)-N-(2-methyl-4-(2-((5-(4-methylpiperazin-1-yl)pyridin-2-yl)amino)pyridin-4-yl)benzyl)thiazole-5-carboxamide]",< 10,< 500
"Cn1cc(Nc2nccc(-c3ccc4c(c3)OCCCC4NC(=O)N3CC(OC(C)(C)C)C3)n2)cn1 (stereo not drawn) [Example I-189, 3-(tert-butoxy)-N-(8-(2-((1-methyl-1H-pyrazol-4-yl)amino)pyrimidin-4-yl)-2,3,4,5-tetrahydrobenzo[b]oxepin-5-yl)azetidine-1-carboxamide]",< 10,< 500
"Cc1cc(-c2ccnc(Nc3cnn(CCN)c3)n2)ccc1CNC(=O)c1cnc(C(C)(C)C)s1 [Example I-50, N-(4-(2-((1-(2-aminoethyl)-1H-pyrazol-4-yl)amino)pyrimidin-4-yl)-2-methylbenzyl)-2-(tert-butyl)thiazole-5-carboxamide]",< 10,< 500
"Cn1cc(Nc2nccc(-c3ccc4c(c3)CCCCC4NC(=O)c3cnn(C(C)(C)C)c3)n2)cn1 (stereo not drawn) [Example I-257, 1-tert-butyl-N-[2-[2-[(1-methylpyrazol-4-yl)amino]pyrimidin-4-yl]-6,7,8,9-tetrahydro-5H-benzo[7]annulen-5-yl]pyrazole-4-carboxamide]",,< 500
"[2H]C([2H])([2H])C(OC1CN(C(=O)NCc2ccc(-c3ccnc(Nc4cnn(CC)c4)n3)cc2C)C1)C([2H])([2H])[2H] [Example I-262, N-[[4-[2-[(1-ethylpyrazol-4-yl)amino]pyrimidin-4-yl]-2-methyl-phenyl]methyl]-3-(1,1,1,3,3,3-d6)isopropoxy-azetidine-1-carboxamide]",,< 500
"Cc1cc(-c2ccnc(Nc3cnn(C)c3)n2)ccc1CNC(=O)N1CC(OC(C)(C)C)C1 [Example I-152, 3-(tert-butoxy)-N-(2-methyl-4-(2-((1-methyl-1H-pyrazol-4-yl)amino)pyrimidin-4-yl)benzyl)azetidine-1-carboxamide]",< 10,
"Cn1cc(Nc2cc(-c3ccc4c(c3)CCCC4NC(=O)c3cc4c(s3)CCOC4)ncn2)cn1 (stereo not drawn) [Example I-94, N-(6-(6-((1-methyl-1H-pyrazol-4-yl)amino)pyrimidin-4-yl)-1,2,3,4-tetrahydronaphthalen-1-yl)-6,7-dihydro-4H-thieno[3,2-c]pyran-2-carboxamide]",100 to 999,
"Cc1cc(-c2ccnc(N)n2)ccc1CNC(=O)c1cc2n(n1)CCNC2 [Example I-76, N-(4-(2-aminopyrimidin-4-yl)-2-methylbenzyl)-4,5,6,7-tetrahydro pyrazolo[1,5-a]pyrazine-2-carboxamide]",> 10000,
"Cc1cc(-c2ccnc(Nc3cnn(C)c3)n2)ccc1CNC(=O)c1cc2c(s1)CCNC2C (stereo not drawn) [Example I-14, 4-methyl-N-(2-methyl-4-(2-((1-methyl-1H-pyrazol-4-yl)amino)pyrimidin-4-yl)benzyl)-4,5,6,7-tetrahydrothieno[3,2-c]pyridine-2-carboxamide]",10 to 99,
"Cc1cc(-c2ccnc(Nc3ccc(N4CCN(C)CC4)cn3)n2)ccc1CNC(=O)c1cc2c(s1)CCNC2 [Example I-119, N-(2-methyl-4-(2-((5-(4-methylpiperazin-1-yl)pyridin-2-yl)amino)pyrimidin-4-yl)benzyl)-4,5,6,7-tetrahydrothieno[3,2-c]pyridine-2-carboxamide]",100 to 999,
"Cc1cc(-c2cc(Nc3ccn(CCO)n3)ncn2)ccc1CNC(=O)c1cnc(C(C)(C)C)s1 [Example I-151, 2-(tert-butyl)-N-(4-(6-((1-(2-hydroxyethyl)-1H-pyrazol-3-yl)amino)pyrimidin-4-yl)-2-methylbenzyl)thiazole-5-carboxamide]",< 10,
"Cc1cc(-c2ccnc(N)n2)ccc1CNC(=O)c1nc2c(s1)CCNCC2 [Example I-73, N-(4-(2-aminopyrimidin-4-yl)-2-methylbenzyl)-5,6,7,8-tetrahydro-4H-thiazolo[4,5-d]azepine-2-carboxamide]",1000 to 10000,
"Cc1cc(-c2ccnc(N)n2)ccc1CNC(=O)c1nc2c(s1)CNCC2 [Example I-75, N-(4-(2-aminopyrimidin-4-yl)-2-methylbenzyl)-4,5,6,7-tetrahydrothiazolo[5,4-c]pyridine-2-carboxamide]",1000 to 10000,
"Cc1cc(-c2ccnc(Nc3cnn(C)c3)n2)ccc1CNC(=O)c1ccc(Cl)c(Cl)c1 [Example I-8, 3,4-dichloro-N-(2-methyl-4-(2-((1-methyl-1H-pyrazol-4-yl)amino)pyrimidin-4-yl)benzyl)benzamide]",< 10,
"Cc1cc(-c2ccnc(Nc3cnn(C)c3)n2)ccc1CNC(=O)c1cnn(C)c1 [Example I-157, 1-Methyl-N-(2-methyl-4-(2-((1-methyl-1H-pyrazol-4-yl)amino)pyrimidin-4-yl)benzyl)-1H-pyrazole-4-carboxamide]",10 to 99,
